Assay results published in US20070010548A1, “Compounds having inhibitive activity of phosphatidylinositol 3-kinase and methods of use thereof” (ZENTARIS GmbH, priority 2003, published 2007).
Read-outs that look alike come from different tables or passages of the source.

Experiments:
[1] = tested on: tumor cells altered in PI 3-K/PTEN; assay: Cellular growth inhibition assays on tumor cells altered in PI 3-K/PTEN; assay type: cell-based; settings: for IC50: approximate, read-out: Approx. mIC50 in cellular assays
Experimental: (§1) The ovarian cancer cell line SKOV3 is not altered in PI 3-K signaling and should be less sensitive to the anti-proliferative effects produced by treatment with PI 3-K inhibitors, while the OVCAR3 cell line, which is altered in PI 3-K signaling, via amplification of PI 3-K activity, should be sensitive. SKOV3 cells were seeded in 96-well cell culture plates (Greiner) at a density of 20,000 cells per well in McCoys 5A media (GibcoBRL) with 10% fetal calf serum and 20 mM L-glutamine. OVCAR3 cells were seeded at a density of 15,000 cells per well in RPMI 1640 media (GibcoBRL) containing 20 mM 1-glutamine, 0.01 ng/ml bovine insulin, 10 mM Hepes pH 7.4, 1 mM sodium pyruvate, 2.5 g/L glucose, and 20% fetal calf serum. After 24 hours, compounds were added to cell media to a final concentration of 1 μM, and the cells were grown in the presence of the compounds for 48 hours, in media containing 0.5% fetal calf serum. Viability was determined using a MTT cell proliferation assay (R and D Systems) and comparison to DMSO alone controls (100% viability). Compounds which result in reduced viability may act either by inhibiting cell proliferation or by inducing apoptosis (programmed cell death).
Selected compounds were evaluated against paired ovarian cancer cell lines at a range of concentrations to determine effective concentrations for growth inhibition.
MDA-MB-468 and MDA-MB-231 cells were seeded in 96-well cell culture plates (Greiner) at a density of 20,000 cells per well in RMPI media (GibcoBRL) with 10% fetal calf serum and 20 mM L-glutamine. After 24 hours, compounds were added to cell media to a final concentrations ranging from 10 nM to 100 μM, and the cells were grown in the presence of the compounds for 48 hours in RMPI media containing 0.5% fetal calf serum and 20 mM L-glutamine. Viability was determined using a MTT cell proliferation assay (R and D Systems) and comparison to DMSO alone controls (100% viability). Compounds which result in reduced viability may act either by inhibiting cell proliferation or by inducing apoptosis (programmed cell death). […] Selected compounds were evaluated against the paired breast cancer cell lines at a range of concentrations to determine effective concentrations for growth inhibition.
Table 3 summarizes the data for several compounds of this structural group, including the IC50 for inhibition of enzyme activity in vitro, cellular mIC50 and anti-proliferative activity against tumor cells altered in PI 3-K mediated signaling, and effects on cellular levels of phospho-Akt.

[2] = tested on: SKOV3 cells; assay: MTT cell proliferation/viability assay, SKOV3 ovarian cancer cells; assay type: cell-based; settings: Homo sapiens
Experimental: as §1
(§2) Many of these also show similar selective effects on cell growth. Table 2 summarizes the results of two separate cell proliferation experiments for selected compounds of the present invention.

[3] = tested on: OVCAR3 cells; assay: MTT cell proliferation/viability assay, OVCAR3 ovarian cancer cells; assay type: cell-based; settings: Homo sapiens
Experimental: as §1, §2

[4] = tested on: MA-MB-468 cells; assay: Three dimensional matrix model of tumor cell growth; assay type: cell-based; settings: Homo sapiens, read-out: Percent Inhibition of Tumor Cell Viability
Experimental: PI 3-K inhibitors are assayed for effects on tumor cells grown in three-dimensional matrix that more closely mimics the environment of a tumor than other cell culture models. MA-MB-468 cells are mixed in a matrix solution, such as Matrigel (13D Biosciences) at 2×10 ^6 cells/ml and 100 μl of this mixture added to each well of a 24 well cell culture plate. Each well is 6.5 mm in diameter and 2×10^5 cells are added per well. Once the matrix is solidified, RMPI media containing 10% fetal calf serum and 2 mM L-glutamine is added to each well. After approximately 14 days of culture, the compounds are added to cell media at final concentrations ranging from 10 nM to 100 μM, and the cells are grown in the presence of the compounds for 7 days in RMPI media containing 0.5% fetal calf serum and 20 mM L-glutamine.
Following this treatment, cell growth in the three dimensional matrix can be measured using a cell viability assay such as the CellTiter 96 One Solution Cell Proliferation Assay (Promega, G3582). […] of assay solution is added per well, the cells are incubated for 3 hours. Absorbance at 550 nm is determined for each well and used directly as being equivalent of cell number. In addition, live and dead cells can be distinguished and observed using fluorescence microscopy after staining with Fluorescein diacetate (Sigma), which labels live cells, and propidium iodide (Sigma), which labels dead cells.
The PI 3-K inhibitors of the present invention show anti-proliferative effects in this model of tumor cell growth, as shown by the representative data in Table 6, which compares the anti-proliferative effects of one inhibitor compared to the effects of the benchmark PI 3-K inhibitor LY294002. The PI 3-K inhibitors of the present invention also show enhanced anti-proliferative activity when combined with other cancer drugs, for example paclitaxel or doxorubicin.

[5] = tested on: PI 3-K; settings: background literature; read-out: IC50 (inhibits PI 3-K); cited from earlier work
[6] = SK-OV-3, 48 hours, MTT, DMSO alone controls = 100% viability, Trial 1, read-out: Trial 1 SKOV-3 (viability)
[7] = SK-OV-3, 48 hours, MTT, DMSO alone controls = 100% viability, Trial 2, read-out: Trial 2 SKOV-3 (viability)
[8] = SK-OV-3, average of Trial 1 and Trial 2, 48 hours, read-out: Average SKOV3 (viability)
[9] = OVCAR-3, 48 hours, MTT, DMSO alone controls = 100% viability, Trial 1, read-out: Trial 1 OVCAR3 (viability)
[10] = OVCAR-3, 48 hours, MTT, DMSO alone controls = 100% viability, Trial 2, read-out: Trial 2 OVCAR3 (viability)
[11] = OVCAR-3, average of Trial 1 and Trial 2, 48 hours, read-out: average OVCAR-3 (viability)

Structure (SMILES)	Anti-proliferative effects on tumor cells altered in PI 3-K/PTEN [1]	IC50 [1] [µM]	viability at 1 µM [2, 6] [%]	viability at 1 µM [2, 7] [%]	viability at 1 µM [2, 8] [%]	viability at 1 µM [3, 9] [%]	viability at 1 µM [3, 10] [%]	viability at 1 µM [3, 11] [%]	cytotoxicity at 1 µM ([4]; Concentration 1 μM) [%]	cytotoxicity at 5 µM ([4]; Concentration 5 μM) [%]	cytotoxicity at 10 µM ([4]; Concentration 10 μM) [%]	cytotoxicity at 50 µM ([4]; Concentration 50 μM) [%]	IC50 [5] [µM]
CC1(C)CC(=O)C2=C(C1)Nc1c(c(-c3ccccc3)nn1-c1ccc(F)cc1)C2c1ccc(C(C)(C)C)cc1 (stereo not drawn) [Compound 963924]	Yes	< 20	100	100	100	61	66.4	63.7					
CCOc1ccc(C2C3=C(CC(C)(C)CC3=O)Nc3c2c(C(C)(C)C)nn3C(C)(C)C)cc1 (stereo not drawn) [Compound 963977]			98	81.7	89.8	41	59.6	50.3					
CCOc1ccc(C2C3=C(CC(C)(C)CC3=O)Nc3c2c(C(C)(C)C)nn3-c2ccc(Cl)cc2)cc1 (stereo not drawn) [Compound 964127]	Yes	< 20	100	100	100	42	76.2	59.1					
COc1cc(OC)cc(C2C3=C(CC(C)(C)CC3=O)Nc3c2c(C(C)(C)C)nn3-c2ccc(Cl)cc2)c1 (stereo not drawn) [Compound 964144]	Yes	< 20	100	100	100	54	66.2	60.1					
Cc1cccc(-n2nc(C(C)(C)C)c3c2NC2=C(C(=O)CC(C)(C)C2)C3c2ccc(C(C)(C)C)cc2)c1C (stereo not drawn) [Compound 964336]	Yes	< 20	96	83	89.5	32	56	44					
Cc1ccc(C2C3=C(CC(C)(C)CC3=O)Nc3c2c(C(C)(C)C)nn3-c2cccc(F)c2)cc1 (stereo not drawn) [Compound 964352]	Yes	< 20	93	74	83.5	33	52.9	43					
O=c1cc(N2CCOCC2)oc2c(-c3ccccc3)cccc12 [LY294002, reference compound]									< 5	50	60	90	
O=c1c(O)c(-c2ccc(O)c(O)c2)oc2cc(O)cc(O)c12 [quercetin]													3.8
